Laboratory results taken from PubChem BioAssay AID1963444 (Molecular Pharmacology Branch, DTP, NCI, 2024).

Test system: HSSY-II complex spheroid growth, percent test/control
Test: Anticancer human tumor HSSY-II cell line growth inhibition [Asc];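 note: spheroids exposed to drug for 7 days before reading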
Details: for IC50: curve of first compound; for viability, T/C: stronger effect = lower value
Procedure: Multicellular complex tumor spheroid response to apoptosis pathway targeting inhibitors Alrizomadlin, Pelcitoclax, and Dasminapant in combination with a variety of drugs and investigational agents in selected tumor cell lines
The MDM2 inhibitor alrizomadlin, the Bcl-2/Bcl-xL inhibitor pelcitoclax, and the IAPs inhibitor dasminapant were evaluated both individually and in combination with standard of care and investigational anticancer small molecules within a complex spheroid model of solid tumors. . Complex spheroids include a stromal component modeled by human endothelial cells (HUVEC) and fibroblasts modeled by human mesenchymal stem cells (MSCs). The concentration ranges selected for each drug and investigational agent were based upon clinically achievable concentrations if the clinical Cmax of the agent was known.
Compounds. The drugs and investigational agents: alrizomadlin (APG-115; NSC831270), pelcitoclax (APG-1252; NSC835773), dasminapant (APG-1387;NSC834197), TAK-243 (NSC785004), copanlisib (NSC809693), olaparib (NSC753686), talazoparib (NSC767125), cobimetinib (NSC 768068), eltanexor (KPT-8602, NSC 794443), abemaciclib (NSC 768073), sotorasib (NSC818433), adagrasib (NSC 831453), MRTX-1133 (NSC 836407), Iadademestat (ORY1001, NSC 806812), and RMC-4630 (NSC839698), were obtained from the NCI Developmental Therapeutics Program Chemical Repository. The FDA-approved anticancer drug set is available from the Developmental Therapeutics Program at https://dtp.cancer.gov/organization/dscb/obtaining/available plates.htm. […] The stock solutions were prepared in dimethyl sulfoxide (DMSO, Sigma-Aldrich, St. Louis, MO, cat. D2650) at 800-fold the tested concentration and stored at -70 degrees C prior to their use. All drugs and investigational agents were tested over a range starting from a high concentration at or near the clinical Cmax and decreasing in half-log increments. If the clinical Cmax for an agent had not been determined, the highest concentration tested was 10 microM.
The patient-derived cancer (PDC) cell lines include five colon adenocarcinomas: 186277-243-T-J2-PDC, 616215-338-R-J1-PDC, 439559-082-T-J2-PDC, 463943-066-T-J2-PDC, and 519858-162-T-J1-PDC; three pancreatic carcinomas: 323965-272-R-J2-PDC, 521955-158-R6-J3-PDC, and 521955-158-R2-J5-PDC; two uterine sarcomas: 327498-152-R-J2-PDC and 993429-296-R-J1-PDC; two rhabdomyosarcomas: 755483-174-R-J1-PDC and 772245-204-R-J1-PDC; two soft tissue sarcomas: 126254-015-R-J1-PDC and 494315-158-R-J1-PDC; two malignant fibrous histiocytomas: 317291-083-R-J1-PDC and 596521-263-R-J1-PDC; two breast carcinomas: 171881-019-R-J1-PDC and 885512-296-R-J2-PDC; and one ovarian carcinoma: 6556581-035-R-J-PDC were obtained from the NCI PDMR, (https://pdmr.cancer.gov). The established cell lines HSSY-2 synovial sarcoma (RRID:CVCL 8719), SYO-1 synovial sarcoma (RRID:CVCL_7146), MPNST malignant peripheral neural sheath tumor were obtained from the Sloan Kettering Institute. The following established cell lines were purchased from the American Type Culture Collection (ATCC, Manassas, VA), Sor the received from the NCI repository:, PANC-1 pancreatic carcinoma (CRL-1469, RRID:CVCL_0480), OVCAR-5 ovarian carcinoma (RRID:CVCL_1628), OVCAR-8 ovarian carcinoma (RRID:CVCL_1629), , MCF-7 breast carcinoma (CRL-12584, RRID:CVCL_0031), MDA-MB-231 breast carcinoma (CRL-12532, RRID:CVCL_0062), NCI-H1876 small cell lung carcinoma (CRL-5902, RRID:CVCL_1503), NCI-H510A small cell lung carcinoma (HTB-184, RRID:CVCL_1565), NCI-H1417 (CRL-5869, RRID:CVCL_1469), and NCI-H196 small cell lung carcinoma (CRL-5823, RRID:CVCL_1509). Dr. Peter Houghton (Greehey Children's Cancer Research Institute, University of Texas Health Science Center, San Antonio, TX) provided Rh-18 rhabdomyosarcoma (RRID:CVCL_1659). Pooled donor human umbilical vein endothelial cells (HUVEC, Lonza, cat. CC-2519) and human mesenchymal stem cells (hMSC, Lonza, cat. PT-2501) were purchased from Lonza (Walkersville, MD).
Cell Culture. […]

[1] = second compound 0.03 µM, first compound 0.0316 µM
[2] = second compound 0.03 µM, first compound 0.1 µM
[3] = second compound 0.0949 µM, first compound 0.0316 µM
[4] = second compound 0.0949 µM, first compound 0.1 µM
[5] = second compound 0.3 µM, first compound 0.0316 µM
[6] = second compound 0.3 µM, first compound 0.1 µM
[7] = second compound 0.949 µM, first compound 0.0316 µM
[8] = second compound 0.949 µM, first compound 0.1 µM
[9] = second compound 3 µM, first compound 0.0316 µM
[10] = second compound 3 µM, first compound 0.1 µM

Cn1ncnc1[C@H]1c2n[nH]c(=O)c3cc(F)cc(c23)N[C@@H]1c1ccc(F)cc1 + CCN1C(C(=O)NC23CCC(C(=O)O)(CC2)CC3)C(c2cccc(Cl)c2F)C2(C(=O)Nc3cc(Cl)ccc32)C12CCCCC2
IC50 (second compound 0.03 µM): 10.7 nM
IC50 (second compound 0.0949 µM): 2.01 nM
IC50 (second compound 0.3 µM): < 0.316 nM
IC50 (second compound 0.949 µM): < 0.316 nM
IC50 (second compound 3 µM): < 0.316 nM
viability, T/C (second compound 0.03 µM, first compound 0.000316 µM): 91.9%
viability, T/C (second compound 0.03 µM, first compound 0.001 µM): 89.6%
viability, T/C (second compound 0.03 µM, first compound 0.00316 µM): 68.1%
viability, T/C (second compound 0.03 µM, first compound 0.01 µM): 52.8%
viability, T/C [1]: 31.4%
viability, T/C [2]: 19.6%
viability, T/C (second compound 0.0949 µM, first compound 0.000316 µM): 61.4%
viability, T/C (second compound 0.0949 µM, first compound 0.001 µM): 53.6%
viability, T/C (second compound 0.0949 µM, first compound 0.00316 µM): 47.1%
viability, T/C (second compound 0.0949 µM, first compound 0.01 µM): 31%
viability, T/C [3]: 15.4%
viability, T/C [4]: 10.2%
viability, T/C (second compound 0.3 µM, first compound 0.000316 µM): 28.5%
viability, T/C (second compound 0.3 µM, first compound 0.001 µM): 28.6%
viability, T/C (second compound 0.3 µM, first compound 0.00316 µM): 18.2%
viability, T/C (second compound 0.3 µM, first compound 0.01 µM): 10.4%
viability, T/C [5]: 6.69%
viability, T/C [6]: 5.88%
viability, T/C (second compound 0.949 µM, first compound 0.000316 µM): 8.57%
viability, T/C (second compound 0.949 µM, first compound 0.001 µM): 7.9%
viability, T/C (second compound 0.949 µM, first compound 0.00316 µM): 7.26%
viability, T/C (second compound 0.949 µM, first compound 0.01 µM): 5.4%
viability, T/C [7]: 6.11%
viability, T/C [8]: 6.09%
viability, T/C (second compound 3 µM, first compound 0.000316 µM): 2.41%
viability, T/C (second compound 3 µM, first compound 0.001 µM): 2.9%
viability, T/C (second compound 3 µM, first compound 0.00316 µM): 4.02%
viability, T/C (second compound 3 µM, first compound 0.01 µM): 2.59%
viability, T/C [9]: 1.88%
viability, T/C [10]: 4.41%

O=C(c1cc(Cc2n[nH]c(=O)c3ccccc23)ccc1F)N1CCN(C(=O)C2CC2)CC1 + CCN1C(C(=O)NC23CCC(C(=O)O)(CC2)CC3)C(c2cccc(Cl)c2F)C2(C(=O)Nc3cc(Cl)ccc32)C12CCCCC2
IC50 (second compound 0.03 µM): 1760 nM
IC50 (second compound 0.0949 µM): 196 nM
IC50 (second compound 0.3 µM): < 31.6 nM
IC50 (second compound 0.949 µM): < 31.6 nM
IC50 (second compound 3 µM): < 31.6 nM
viability, T/C [1]: 81.5%
viability, T/C [2]: 75.1%
viability, T/C (second compound 0.03 µM, first compound 0.316 µM): 84.5%
viability, T/C (second compound 0.03 µM, first compound 1 µM): 63.6%
viability, T/C (second compound 0.03 µM, first compound 3.16 µM): 34.5%
viability, T/C (second compound 0.03 µM, first compound 10 µM): 14.1%
viability, T/C [3]: 52.9%
viability, T/C [4]: 52.4%
viability, T/C (second compound 0.0949 µM, first compound 0.316 µM): 47.2%
viability, T/C (second compound 0.0949 µM, first compound 1 µM): 38.5%
viability, T/C (second compound 0.0949 µM, first compound 3.16 µM): 18.7%
viability, T/C (second compound 0.0949 µM, first compound 10 µM): 9.39%
viability, T/C [5]: 23.5%
viability, T/C [6]: 20.9%
viability, T/C (second compound 0.3 µM, first compound 0.316 µM): 18.3%
viability, T/C (second compound 0.3 µM, first compound 1 µM): 15.5%
viability, T/C (second compound 0.3 µM, first compound 3.16 µM): 9.8%
viability, T/C (second compound 0.3 µM, first compound 10 µM): 6.14%
viability, T/C [7]: 6.91%
viability, T/C [8]: 7.91%
viability, T/C (second compound 0.949 µM, first compound 0.316 µM): 6.69%
viability, T/C (second compound 0.949 µM, first compound 1 µM): 7.17%
viability, T/C (second compound 0.949 µM, first compound 3.16 µM): 6.79%
viability, T/C (second compound 0.949 µM, first compound 10 µM): 5.66%
viability, T/C [9]: 3.25%
viability, T/C [10]: 2.79%
viability, T/C (second compound 3 µM, first compound 0.316 µM): 3.26%
viability, T/C (second compound 3 µM, first compound 1 µM): 2.73%
viability, T/C (second compound 3 µM, first compound 3.16 µM): 2.56%
viability, T/C (second compound 3 µM, first compound 10 µM): 3.28%
